The test system of data set [1] is L. (L.) amazonensis intracellular amastigotes. Briefly: Intracellular amastigote assay, L. (L.) amazonensis in BALB/c peritoneal macrophages. The format is cell-based. The conditions noted are these: Leishmania amazonensis, in Mus musculus, 72 h; for IC50: Macrophage, intracellular amastigotes in macrophages. Here is the method: (§1) L. (L.) amazonensis and L. (V.) braziliensis promastigotes with 7–8 days and 5–6 days of growth, respectively, were harvested from cultures and added to a fresh Schneider's medium supplemented with 5% FCS, pH 6.0, and incubated at 32°C for 7 days for L. (L.) amazonensis and 4–5 days for L. (V.) braziliensis until a complete transformation to amastigote-like.
(§2) Peritoneal macrophages from BALB/c mice were harvested by washing with ice-cold RPMI 1640 medium, 4 days after induction with a 3% thioglycollate solution. Macrophages were diluted in RPMI 1640 medium (Sigma, Poole, United Kingdom) plus 10% FCS and plated in 24 well plates with a circular cover glass at a plating density of 2×10^5 macrophages/well. Macrophages were allowed to adhere for 2 h at 37°C and 5% CO2, when the medium was replaced by a fresh one and incubated overnight.
Macrophages were infected with amastigote-like parasites from L. (L.) amazonensis or L. (V.) braziliensis. The parasites were counted in a Neubauer's chamber and adjusted to a macrophage-amastigote ratio of 1∶8. Infected cultures were maintained at 37°C and 5% CO2. After 4 h, extracellular parasites were removed by washing, and a fresh medium containing either TPM compounds, no drug, or the reference drug. AmB (Fungizone®-Bristol- Meyers Squibb Pharmaceutics Ltda, Bedford, USA) was the chosen reference drug and was used at 0.2 µg/mL. After 72 h, the cover glass was removed from the well, washed in RPMI 1640 medium, set in microscope blades, fixed with methanol, and stained with Giemsa for evaluation. Under the immersion microscope, infection indexes (number of amastigotes/100× percentage of infected macrophages) were determined by counting the numbers of intracellular amastigotes in 100 macrophages. […] Each point was tested in triplicate and three independent experiments were then performed. Results are presented as mean and 95% CI [25].

For data set [2], the system named is L. (V.) braziliensis intracellular amastigotes. Briefly: Intracellular amastigote assay, L. (V.) braziliensis in BALB/c peritoneal macrophages. The format is cell-based, Leishmania (Viannia) braziliensis. The conditions noted are these: Leishmania braziliensis, in Mus musculus, 72 h. Here is the method: as §1, §2
Macrophages were infected with amastigote-like parasites from L. (L.) amazonensis or L. (V.) braziliensis. The parasites were counted in a Neubauer's chamber and adjusted to a macrophage-amastigote ratio of 1∶8. Infected cultures were maintained at 37°C and 5% CO2. […] Under the immersion microscope, infection indexes (number of amastigotes/100× percentage of infected macrophages) were determined by counting the numbers of intracellular amastigotes in 100 macrophages. […]

Data set [3] deals with L. (L.) amazonensis promastigotes. As to the kind of experiment: Promastigotes assay, L. (L.) amazonensis. The format is cell-based. The conditions noted are these: Leishmania amazonensis, 48 h incubation, mean of triplicates. The procedure: (§3) Promastigotes of L. (L.) amazonensis (IFLA/BR/1967/PH-8), L. (V.) braziliensis (MHOM/BR/75/M2903), and L. (L.) major (MHOM/IL/80/Friedlin) were maintained at 23°C in Schneider's Drosophila medium (Merck, Germany) supplemented with 20% heat-inactivated fetal calf serum (FCS) (Gibco, Eggenstein, Germany), pH 7.2. The same strain of L. (L.) amazonensis was used for both in vitro and in vivo experiments.
(§4) Promastigotes of L. (L.) amazonensis, L. (V.) braziliensis or L. (L.) major with 3 or 4 days of growth were plated in 24 well plates at a plating density of 1×10^6 parasites/mL in Schneider's medium supplemented with 20% FCS, pH 7.2. Drugs were diluted at the same medium and added to a parasite suspension in different concentrations, in triplicate. After 48 h of incubation, the parasites were counted and compared to the controls containing parasites in the absence of drugs. The drug concentration corresponding to 50% of the parasite growth inhibition was expressed as IC50. Three independent experiments were performed to confirm the results. Data are presented as mean and 95% CI.

For data set [4], the system named is L. (L.) major promastigotes. Briefly: Promastigotes assay, L. (L.) major. The conditions noted are these: Leishmania major, 48 h incubation, mean of triplicates. Type of data set: cell-based. The procedure: as §3, §4
Data set [5] is described as follows: Cytotoxicity MTT assay on macrophages. The format is cell-based. Particulars: mouse, BALB/c peritoneal macrophages, 68 h + 4 h. Here is the method: To evaluate the toxicity of selected compounds, an in vitro cytotoxicity assay on macrophages from BABL/c mice was performed through 3-(4,5-dimethyithiazol-2-yl)-2,5- diphenyltetrazolium bromide (MTT) (Sigma, Poole, United Kingdom) assay. Briefly, peritoneal macrophages from BALB/c mice were harvested, as described previously and plated in 96-well-flat-bottom microplates at a plating density of 1×10^5 macrophages/well. Macrophages were allowed to adhere for 2 h at 37°C and 5% CO2, at which time the medium was replaced by a fresh one and incubated over night. Then, the cells were exposed to ten points of serial dilution of TPM 1, 2, 6, 9 or GV ([…]), which were used to obtain a curve to determine the IC50. After 68 h of incubation, 10 µL of MTT (10 mg/mL) was added to each well and the plates were further incubated for 4 h. The enzymatic reaction was then stopped by addition of 100 µL of 50% isopropanol–10% sodium dodecyl sulfate solution. The optical density at 570 nm was quantified using an ELISA plate reader (BioSource, Inc., EUA). Three independent experiments, in triplicate, were performed to determine the cytotoxicity and data were expressed as mean and 95% CI. An experiment was also done to control the possibility of dye color interference on MTT assay. […] The optical density at 570 nm was measured using an ELISA plate reader (BioSource, Inc., EUA).
Background: Tetrazolium dyes change colour on reduction, which living cells bring about.

In data set [6] the test system is L (L.) amazonensis-infected BALB/c mice. As to the kind of experiment: In vivo topical gel treatment, parasite quantification at the site of infection by limiting dilution. Also noted: species or system Leishmania (Leishmania) amazonensis in BALB/c mice. Particulars: twice a day, 20 days; for decrease of parasite burdens versus control / parasite burdens at site of infection (number of parasites): 1% gel; for parasite burdens at site of infection (number of parasites): 3 days after treatment, control group 1×10^7 (Figure 3A); for number of parasites within the lesion: control group 2.2×10^7 (Figure 3B). Here is the method: The formulation of the GV and TPM 6 gel was prepared by mixing equal amounts of a 2% hydroxyethylcellulose gel (HEC; Natrosol 250 HR, Aqualon) and a 2% GV or TPM 6 hydroethanolic solution (mixture ethanol/water 1/5), until a homogeneous preparation had been attained. Therefore, GV and TPM 6 concentration in these formulations was 1%. The gel lower concentrations for dose-response experiments was obtained by diluting the 1% GV gel with 1% HEC gel.
BALB/c mice (females, 5–6 weeks old) were inoculated with 1×10^7 stationary growth phase promastigotes of L (L.) amazonensis through subcutaneous injections at the base of the tail, after trichotomy.
To evaluate the in vivo efficacy of GV and TPM 6, after development of ulcerated lesions (average diameter of 7 to 9 mm), BALB/c mice were divided into three groups. For treatment with TPM 6 and GV, lesions were covered with 50 µl of a gel formulation containing either 1% GV or 1% TPM 6, twice a day, for 20 days, using an Eppendorf pippetor. Control group: animals from control group were treated with the gel formulation without GV or TPM 6 (placebo). The treatment efficacy was evaluated through of the parasite quantification at the site of infection (see below).
Afterwards, a dose-effect study of GV was performed. BALB/c mice, presenting ulcerated lesions (average diameter of 7 to 9 mm), were divided into four groups, according to lesion size, to assure similar average lesion size among treated groups. The GV gel formulation was applied topically at 0.1, 0.5 or 1.0% twice a day, for 20 days. Control group: animals from control group were treated with the gel formulation without GV (placebo). The treatment efficacy was evaluated through of the parasite quantification at the site of infection (see below).
Three days after the interruption of treatment, the number of viable parasites at the site of infection was quantified by a limiting-dilution assay. Skin fragments from ulcerated lesions, were homogenized with a tissue grinder in Schneider's modified medium supplemented with 10% bovine fetal serum and 100 U/mL penicilin and 100 µg/mL streptomycin. Next, the tissue was centrifuged at 50 g for two minutes for sedimentation (Hitachi, Himac). The supernatant was separated and centrifuged again at 1700 g for 15 minutes (Express, Jouan). The pellet formed was resuspended in 1 mL of Schneider's modified medium supplemented with 10% FCS and 1% of a 100 U/mL penicillin and 100 µg/mL streptomycin solution. The homogenate was submitted to serial dilutions in duplicates in sterile 96 well culture plates and incubated at 23°C. Each well was examined for the presence of parasites, and the number of parasites was quantified by the highest dilution at which parasites could grow over a 7-day period. The lowest dilution that parasites were detected was 10^−1, which was considered the limit of quantification.

The test system of data set [7] is L. (V.) braziliensis promastigotes. Briefly: Promastigotes assay, L. (V.) braziliensis. The format is cell-based, Leishmania (Viannia) braziliensis. Particulars: Leishmania braziliensis, 48 h incubation, mean of triplicates. The procedure:
as §3, §4

The subject of data set [8] is hamsters infected L. (V.) braziliensis. Also noted: method as in PMID 15652330. Particulars: intramuscular administration, doses equivalent to human chemotherapy; cited from earlier work.
Data set [9] has as its system BALB/c mice infected with L. (L.) amazonensis. Particulars: intramuscular administration, doses equivalent to human chemotherapy; cited from earlier work.
The mark [10] stands for this setting: Peritoneal macrophage, control drug at 0.2 µg/ml, intracellular amastigotes, read-out: mean value of parasite growth inhibition.

Entries after “also recorded” stand apart in the source; their conditions may differ. A value given as a limit tells only on which side of the number the result lay.

As usually defined, the inhibition is how much of the control response was suppressed. The term IC50 denotes the midpoint of a concentration-inhibition curve.

Take `C[C@@H]1[C@H](O)[C@@H](C)/C=C/C=C/C=C/C=C/C=C/C=C/C=C/[C@H](O[C@@H]2O[C@H](C)[C@@H](O)[C@H](N)[C@@H]2O)C[C@@H]2O[C@](O)(C[C@@H](O)C[C@@H](O)[C@H](O)CC[C@@H](O)C[C@@H](O)CC(=O)O[C@H]1C)C[C@H](O)[C@H]2C(=O)O` [AmB, amphotericin B]: the inhibition at 0.2 µg/mL in [1] (setting [10]) was found to be 99.5%; in [2] (setting [10]), 98%.
In the case of `CN(C)c1ccc(C(=C2C=CC(=[N+](C)C)C=C2)c2ccc(N(C)C)cc2)cc1` [GV, gentian violet], the IC50 in data set [3] amounted to 0.025 µM; in data set [4], 0.034 µM; in data set [1] it was 170 nM. In addition, the IC50 at 68 h in data set [5] was determined as 4.03 µM. Besides, in data set [6], the “decrease of parasite burdens versus control” value was “complete elimination of parasites”. The “parasite burdens at site of infection (number of parasites)” value in [6] is listed as “no parasites were found”. Moreover, the “number of parasites within the lesion” value is given as 2.2×10^6 in data set [6] (GV gel 0.1%), 2.62×10^5 in [6] (GV gel 0.5%) and “parasites were not detected; also recorded: complete elimination of parasite burden” in [6] (GV gel 1%).
Turning to `CCN(CC)c1ccc(C(=C2C=C(Cl)C=CC2=[Cl+])c2ccc(N(CC)CC)cc2)cc1` [TPM 3], the IC50 in [3] was > 1 µM.
On to `CCN(CC)c1ccc(C(=C2C=CC(C)C=C2)c2ccc(N(CC)CC)cc2)cc1` (stereo not drawn) [TPM 6], for which the IC50 in data set [3] was 0.031 µM; in data set [4], 0.045 µM; in data set [7], 0.063 µM; in data set [1], 100 nM; in [2] (Macrophage, intracellular amastigotes in macrophages) it was 100 nM. For the same compound, the IC50 at 68 h in [5] came out at 4.16 µM. Further, the “decrease of parasite burdens versus control” value in [6] is on record as “three orders of magnitude”. The “parasite burdens at site of infection (number of parasites)” value in data set [6] is recorded as 1×10^4.
As to `CN(C)c1ccc(C(=C2C=CC(c3cnc(-c4ccc(-c5ncc(-c6ccccc6)o5)cc4)o3)C=C2)c2ccc(N(C)C)cc2)cc1` (stereo not drawn) [TPM 7], the IC50 in [3] was > 5 µM.
The same measure, in the same setting: as for `CCN(CC)c1ccc(C(=C2C=C(C(c3ccc(Cl)cc3)C(Cl)(Cl)Cl)C=CC2=[Cl+])c2ccc(N(CC)CC)cc2)cc1` (stereo not drawn) [TPM 10], the figure is > 4 µM.
Consider meglumine antimoniate [Glucantime], for which the “reduction in lesions size” value in data set [8] and in data set [9] was “did not lead to significant reductions in lesions size” each time.

The values above are taken from PMC3544846, “Triphenylmethane Derivatives Have High In Vitro and In Vivo Activity against the Main Causative Agents of Cutaneous Leishmaniasis” (PLoS ONE, 2013).
